# Measured values: patent US10092566B2, “Composition for controlling a gut immunity and use thereof” (SEOUL NATIONAL UNIVERSITY R&DB FOUNDATION, priority 2013, dated 2018)
# Legend:
# Upd3-JAK-STAT pathway = experiment: Epithelial cell renewal program and Upd3-JAK-STAT reporter analysis; assay type: in vivo, Drosophila
# Procedure: To examine a renewal program for epithelial cells, a 5% sucrose solution containing 20 nM of uracil (for 16 hours) or different bacteria (approx. 5×10^8 cells; E. carotovora, E. carotovora-pyrE::Tn5 and E. carotovora-pyrE::Tn5-pyrE for 22 hours) was orally administered to genetically different adult Drosophila (5 to 6 days old). For the recovery experiment, Drosophila coingested URA− strain (E. carotovora-pyrE::Tn5) and 1 nM of uracil. Following the dissection of the gut, the gut was treated with primary antibodies [anti-phospho-histone H3 (1:2000 dilution; Millipore), anti-LacZ (1:1000 dilution; Cappel), or anti-Prospero (1:100 dilution; Developmental Studies Hybridoma Bank)]. Then, the gut was treated with secondary antibodies (Alexa Fluor 568 goat anti-rabbit IgG or Alexa Fluor 488 goat anti-murine IgG (Invitrogen)). DAPI was used for nuclear staining.
# Drosophila containing esg-GAL4> UAS-GFP were used to analyze ISC proliferation and differentiation. A 5% sucrose solution containing 20 nM of uracil (for 16 hours) or different bacteria (E. carotovora, E. carotovora-pyrE::Tn5, and E. carotovora-pyrE::Tn5-pyrE, approx. 5×10^8 cells, for 22 hours) was orally administered to Drosophila (5 to 6 days old). For the recovery experiment, Drosophila coingested a URA− strain (E. carotovora-pyrE::Tn5) and 1 nM of uracil. […]
# DUOX = experiment: In vivo ROS detection in gut epithelia (HOCl-specific R19S staining, ratio of ROS-positive guts); design: species or system Drosophila
# From the text: R19S, a recently developed HOCl-specific rhodamine-based dye, was used in this experiment (Chen et al., Chem Commun (Camb) 47, pp. 4373-4375, 2011). R19S was purchased from Futurechem (Seoul, South Korea). […]
# Furthermore, to measure the basal level of ROS in germ-free animals, Drosophila monoassociated with each bacterium (C. intestini, A. pomorum, L. plantarum, G. morbifer, G. morbifer-carA::Tn5, L. brevis, or L. brevisΔcarA) were experimented with as disclosed above. A 5% sucrose solution containing 10 μM of R19S was orally administered to the monoassociated Drosophila (13 days old) for 90 minutes.
# Following the R19S ingestion, the midguts were dissected and fixed with 4% formaldehyde. The level of HOCl (ROS level) was visualized by LSM700 confocal microscopy (Carl Zeiss).
# For all of the experiments, R19S-positive guts in each animal group (n=approx. 20) were measured by each independent experiment, and data was indicated by at least three repeated and independent experiments. The number of R19S-positive guts in regard to the total numbers of gut samples was indicated as the ratio of ROS-positive guts.
smiles,measurement,setting,value
O=c1cc[nH]c(=O)[nH]1 [uracil],"restoration of infection-induced Upd3-JAK-STAT signaling, ISC proliferation, differentiation and enteroblast accumulation",Upd3-JAK-STAT pathway; coingestion of 1 nM uracil with URA− strain E. carotovora-pyrE::Tn5,sufficient to restore
same,Upd3-JAK-STAT pathway activation and epithelial cell renewal by uracil ingestion alone,"Upd3-JAK-STAT pathway; uracil 20 nM, PLCβ-dependent",sufficient to trigger
same,infection-induced gut ROS after coingestion of uracil with URA− strain,DUOX; E. carotovora-pyrE::Tn5 plus uracil,normal level of infection-induced ROS
same,lowest concentration inducing gut ROS generation,"DUOX; dose-dependent analysis, oral ingestion, adult Drosophila",≥ 10 pM
same,ROS-inducing ability / DUOX activation,"DUOX; nucleobases and pyrimidine analogs, 20 nM each, ingestion for 15 minutes",capable of activating DUOX
same,gut ROS generation,"DUOX; uracil 20 nM for 1.5 hours, PLCβ-DUOX signaling-dependent (absent in DUOX-RNAi, PLCβ−/−)",generation of large amounts of gut ROS
same,requirement of Gαq for uracil-induced ROS generation,"DUOX; uracil 20 nM for 1.5 hours, control vs Gαq−/− flies",required
same,uracil-induced ROS generation in presence of commensal bacteria in the gut,"DUOX; uracil 20 nM, 1.5 hours, GF flies monoassociated with C. intestini, A. pomorum or L. plantarum",could not inhibit the ROS-generating ability of uracil
